The source made the active and inactive calls. The rule behind the calls is not given here.
Experiments:
[1] = tested on: Plasmodium falciparum; assay: Antimalarial activity against chloroquine-sensitive Plasmodium falciparum 3D7 infected in human erythrocytes assessed as reduction in parasite growth incubated for 72 hrs by SYBR green dye fluorimetric assay; type: functional, organism-based; conditions: 3D7, Erythrocyte
[2] = Cytotoxicity against human HepG2 cells; type: toxicity, cell-based
[3] = Selectivity index, ratio of CC50 for cytotoxicity against human HepG2 cells to IC50 for antimalarial activity against chloroquine-sensitive Plasmodium falciparum 3D7 infected in human erythrocytes assessed as reduction in parasite growth incubated for 72 hrs by SYBR green dye fluorimetric assay; type: toxicity, cell-based; conditions: read-out: Ratio CC50/IC50
[4] = Resistance index, ratio of IC50 for antimalarial activity against […] infected in human erythrocytes to IC50 for antimalarial activity against chloroquine-sensitive Plasmodium falciparum 3D7 infected in erythrocytes; type: functional
[5] = tested on: Plasmodium falciparum; assay: Antimalarial activity against […] infected in human erythrocytes assessed as reduction in parasite growth incubated for 72 hrs by SYBR green dye fluorimetric assay; type: functional, organism-based; conditions: K1, Erythrocyte
[6] = tested on: Plasmodium falciparum; assay: Antimalarial activity against […] infected in human erythrocytes assessed as inhibition of parasitic growth at 5 uM incubated for 72 hrs by SYBR green dye fluorimetric assay relative to control; type: functional, K1, Erythrocyte; parameters: scale not given: the % may be the effect or the level left
[7] = tested on: Plasmodium falciparum; assay: Induction of morphological changes in asexual blood stage Plasmodium falciparum assessed as appearance of condensed cytoplasm at 1 uM incubated for 24 hrs by Geimsa-staining based light microscopic analysis; type: functional, organism-based
[8] = tested on: Plasmodium falciparum; assay: Induction of morphological changes in asexual blood stage Plasmodium falciparum assessed as appearance of compact structure at 1 uM incubated for 24 hrs by Geimsa-staining based light microscopic analysis; type: functional, organism-based
[9] = tested on: Plasmodium falciparum; assay: Induction of morphological changes in asexual blood stage Plasmodium falciparum assessed as appearance of schizonts at 1 uM incubated for 48 to 72 hrs by Geimsa-staining based light microscopic analysis; type: functional, organism-based; conditions: time 48-72 hrs
[10] = tested on: Plasmodium falciparum; assay: Induction of morphological changes in asexual blood stage Plasmodium falciparum assessed as appearance of fragmentation at 1 uM incubated for 24 hrs by Geimsa-staining based light microscopic analysis; type: functional, organism-based
[11] = tested on: Plasmodium falciparum; assay: Induction of morphological changes in asexual blood stage Plasmodium falciparum assessed as appearance of healthy rings at 1 uM incubated for 48 to 72 hrs by Geimsa-staining based light microscopic analysis; type: functional, organism-based; conditions: time 48-72 hrs
[12] = tested on: Plasmodium falciparum; assay: Induction of morphological changes in asexual blood stage Plasmodium falciparum assessed as lack of prominent periphery in trophozoites at 1 uM incubated for 24 hrs by Geimsa-staining based light microscopic analysis; type: functional, organism-based
[13] = tested on: Plasmodium berghei; assay: Antimalarial activity against GFP-luciferase expressing liver stage Plasmodium berghei sporozoites infected in human HepG2 cells assessed as inhibition of parasitic growth by luminescence based analysis; type: functional, organism-based
[14] = tested on: Plasmodium falciparum; assay: Antimalarial activity against […] infected in human erythrocytes assessed as inhibition of parasitic growth at 0.16 to 0.63 uM incubated for 72 hrs by SYBR green dye fluorimetric assay relative to control; type: functional, K1, Erythrocyte; parameters: scale not given: the % may be the effect or the level left; conditions: dose 0.16-0.63 µM
[15] = tested on: Plasmodium falciparum; assay: Antimalarial activity against chloroquine-sensitive Plasmodium falciparum 3D7 infected in erythrocytes assessed as inhibition of parasite growth at 0.16 to 0.31 uM incubated for 72 hrs by SYBR green dye fluorimetric assay; type: functional, organism-based; conditions: Erythrocyte, dose 0.16-0.31 µM

| Structure (SMILES) | IC50 [1] [nM] | CC50 [2] [nM] | selectivity ratio at 72 h [3] | Ratio IC50 [4] | IC50 [5] [nM] | also measured |
| --- | --- | --- | --- | --- | --- | --- |
| Cc1ccc(-c2cn(-c3ccc(F)cc3)nn2)cc1 | 3670 | 159000 | – | – | – | – |
| COc1ccc(-c2nc(C(=O)NCc3cn(-c4ccc(F)cc4)nn3)cc3c2[nH]c2ccccc23)cc1 | 1910 | 163000 | 85.5 | – | – | – |
| O=C(NCc1cn(-c2ccc(F)cc2)nn1)c1cc2c([nH]c3ccccc32)c(-c2ccccc2)n1 | 1400 | 207000 | 148 | – | – | – |
| O=C(NCc1cn(-c2cc(C(F)(F)F)cc(C(F)(F)F)c2)nn1)c1cc2c([nH]c3ccccc32)c(-c2ccc(Cl)cc2Cl)n1 | 2500 | 155000 | 120 | – | – | – |
| Cc1ccc(-c2nc(C(=O)NCc3cn(-c4ccc(F)cc4)nn3)cc3c2[nH]c2ccccc23)cc1 | 1940 | 177000 | 91.4 | – | – | – |
| COc1cc([C@@H]2c3cc4c(cc3[C@H](O)[C@H]3COC(=O)[C@H]23)OCO4)cc(OC)c1OC [PODOFILOX] | – | 8700 | – | – | – | – |
| O=C(NCc1cn(-c2ccc(OC(F)(F)F)cc2)nn1)c1cc2c([nH]c3ccccc32)c(-c2ccc(Cl)cc2Cl)n1 | 1550 | 187000 | 121 | – | – | – |
| Cc1ccc(-n2cc(CNC(=O)c3cc4c([nH]c5ccccc54)c(-c4ccc(Cl)cc4Cl)n3)nn2)cc1 | 2500 | 222000 | 88.8 | – | – | – |
| O=C(NCc1cn(-c2ccccc2)nn1)c1cc2c([nH]c3ccccc32)c(-c2ccc(C(F)(F)F)cc2)n1 | 370 | 159000 | 430 | 2.03 | 750 | – |
| C#CCNC(=O)c1cc2c([nH]c3ccccc32)c(-c2ccc(F)cc2)n1 | 3460 | 167000 | – | – | – | – |
| O=C(NCc1cn(-c2ccccc2)nn1)c1cc2c([nH]c3ccccc32)c(-c2cccc(Cl)c2)n1 | 800 | 217000 | 271 | 1.025 | 820 | – |
| COc1ccc(-c2nc(C(=O)NCc3cn(-c4cccc(C(F)(F)F)c4)nn3)cc3c2[nH]c2ccccc23)cc1 | 450 | 200000 | 444 | 1.44 | 650 | – |
| CCc1ccc(-n2cc(CNC(=O)c3cc4c([nH]c5ccccc54)c(-c4ccc(C)cc4)n3)nn2)cc1 | 750 | 200000 | 266 | 0.65 | 490 | Activity [6]: 100%; Activity [7]: Active; Irreversible Structural Deformations Observed; Activity [8]: Active; Irreversible Structural Deformations Observed; Activity [9]: inactive; Activity [10]: Active; Irreversible Structural Deformations Observed; Activity [11]: inactive; Activity [12]: Active; Irreversible Structural Deformations Observed; IC50 [13]: 7580 nM |
| O=C(NCc1cn(-c2cccc(C(F)(F)F)c2)nn1)c1cc2c([nH]c3ccccc32)c(-c2ccc(Cl)cc2Cl)n1 | 1300 | 195000 | 150 | – | – | – |
| COc1ccc(-n2cc(CNC(=O)c3cc4c([nH]c5ccccc54)c(-c4ccccc4)n3)nn2)cc1 | 3050 | 195000 | 64 | – | – | – |
| O=C(NCc1cn(-c2cccc(C(F)(F)F)c2)nn1)c1cc2c([nH]c3ccccc32)c(-c2ccccc2)n1 | 1470 | 200000 | 136 | – | – | – |
| COc1ccc(-n2cc(CNC(=O)c3cc4c([nH]c5ccccc54)c(-c4ccc(Cl)cc4Cl)n3)nn2)cc1 | 920 | 221000 | 240 | 0.62 | 570 | Activity [6]: 95.63%; Activity [7]: Active; Irreversible Structural Deformations Observed; Activity [8]: Active; Irreversible Structural Deformations Observed; Activity [9]: inactive; Activity [10]: Active; Irreversible Structural Deformations Observed; Activity [11]: inactive; Activity [12]: Active; Irreversible Structural Deformations Observed |
| O=C(NCc1cn(-c2ccc(F)cc2F)nn1)c1cc2c([nH]c3ccccc32)c(-c2ccc(Cl)cc2Cl)n1 | 1700 | 144000 | 84.5 | – | – | – |
| O=C(NCc1cn(-c2ccc(F)cc2)nn1)c1cc2c([nH]c3ccccc32)c(-c2ccc(Cl)cc2Cl)n1 | 1840 | 167000 | 90.5 | – | – | – |
| O=C(NCc1cn(-c2ccc(C(F)(F)F)cc2)nn1)c1cc2c([nH]c3ccccc32)c(-c2ccc(Cl)cc2Cl)n1 | 980 | 240000 | 245 | 0.78 | 760 | Activity [6]: 95.63%; Activity [7]: Active; Irreversible Structural Deformations Observed; Activity [8]: Active; Irreversible Structural Deformations Observed; Activity [9]: inactive; Activity [10]: Active; Irreversible Structural Deformations Observed; Activity [14]: 14%; Activity [11]: inactive; Activity [12]: Active; Irreversible Structural Deformations Observed; Activity [15]: Active |
| COc1cc(NC(C)CCCN)c2ncccc2c1 (stereo not given) [PRIMAQUINE] | – | – | – | – | – | IC50 [13]: 2500 nM |
| COc1ccc(-c2nc(C(=O)NCc3cn(-c4ccccc4)nn3)cc3c2[nH]c2ccccc23)cc1 | 1570 | 79500 | 50.6 | – | – | – |
| Cc1ccc(-c2nc(C(=O)NCc3cn(-c4ccccc4)nn3)cc3c2[nH]c2ccccc23)cc1 | 880 | 187000 | 213 | 0.36 | 320 | Activity [6]: 82.3%; Activity [7]: Active; Irreversible Structural Deformations Observed; Activity [8]: Active; Irreversible Structural Deformations Observed; Activity [9]: inactive; Activity [10]: Active; Irreversible Structural Deformations Observed; Activity [11]: inactive; Activity [12]: Active; Irreversible Structural Deformations Observed; IC50 [13]: 4810 nM |
| O=C(NCc1cn(-c2ccccc2)nn1)c1cc2c([nH]c3ccccc32)c(-c2ccccc2)n1 | 2920 | 220000 | 75.3 | – | – | – |
| O=C(NCc1cn(-c2ccc(F)cc2)nn1)c1cc2c([nH]c3ccccc32)c(-c2ccc(C(F)(F)F)cc2)n1 | 210 | 71700 | 341 | 2.9 | 610 | – |
| O=C(NCc1cn(-c2ccccc2)nn1)c1cc2c([nH]c3ccccc32)c(-c2ccc(Cl)cc2Cl)n1 | 2040 | 214000 | 105 | – | – | – |
| O=C(NCc1cn(-c2ccc(F)cc2)nn1)c1cc2c([nH]c3ccccc32)c(-c2cccc(Cl)c2)n1 | 410 | 227000 | 553 | 1.61 | 660 | – |

Source: ChEMBL document CHEMBL6177959, “Design, synthesis and evaluation of novel carboline-triazole hybrids as promising antimalarial agents” (Eur J Med Chem, 2025)
